Laboratory results taken from the NIST ThermoML archive (doi:10.1021/acs.jced.5b00934).
± gives the expanded uncertainty stated by the source.

Conditions: Liquid, Vibrating tube method

CCC(C)O (configuration not stated) [butan-2-ol]
Conditions	mass density [kg/m3]
283.15 K, 99 kPa	814.7 ± 0.8
283.15 K, 306 kPa	814.8 ± 0.8
283.15 K, 529 kPa	815 ± 0.8
283.15 K, 909 kPa	815.3 ± 0.8
283.15 K, 1030 kPa	815.4 ± 0.8
283.15 K, 2005 kPa	816.1 ± 0.8
283.15 K, 2987 kPa	816.8 ± 0.8
283.15 K, 4975 kPa	818.2 ± 0.8
283.15 K, 6996 kPa	819.6 ± 0.8
283.15 K, 9019 kPa	821 ± 0.8
283.15 K, 10037 kPa	821.7 ± 0.8
283.15 K, 12013 kPa	823 ± 0.9
283.15 K, 14917 kPa	824.9 ± 0.9
283.15 K, 17956 kPa	826.9 ± 0.9
283.15 K, 20028 kPa	828.2 ± 0.9
283.15 K, 21997 kPa	829.4 ± 0.9
283.15 K, 24984 kPa	831.2 ± 0.9
283.15 K, 27996 kPa	833 ± 0.9
283.15 K, 29889 kPa	834.1 ± 0.9
283.15 K, 31914 kPa	835.3 ± 0.9
283.15 K, 33047 kPa	835.9 ± 0.9
283.15 K, 33065 kPa	835.9 ± 0.9
283.15 K, 34001 kPa	836.4 ± 0.9
283.15 K, 34979 kPa	836.9 ± 0.9
283.15 K, 40002 kPa	839.7 ± 0.9
283.15 K, 42074 kPa	840.9 ± 0.9
283.15 K, 44993 kPa	842.4 ± 0.9
283.15 K, 48024 kPa	844 ± 0.9
283.15 K, 50047 kPa	845.1 ± 0.9
283.15 K, 52032 kPa	846.1 ± 0.9
283.15 K, 55041 kPa	847.6 ± 0.9
283.15 K, 57909 kPa	849.1 ± 1
283.15 K, 60034 kPa	850.1 ± 1
283.15 K, 62037 kPa	851.1 ± 1
283.15 K, 65102 kPa	852.6 ± 1
283.15 K, 66079 kPa	853 ± 1
283.16 K, 37912 kPa	838.6 ± 0.9
288.15 K, 99 kPa	810.8 ± 0.8
288.15 K, 298 kPa	811 ± 0.8
288.15 K, 511 kPa	811.1 ± 0.8
288.15 K, 912 kPa	811.4 ± 0.8
288.15 K, 993 kPa	811.5 ± 0.8
288.15 K, 2048 kPa	812.3 ± 0.8
288.15 K, 3020 kPa	813 ± 0.8
288.15 K, 5097 kPa	814.5 ± 0.8
288.15 K, 10002 kPa	818 ± 0.8
288.15 K, 11924 kPa	819.3 ± 0.9
288.15 K, 15086 kPa	821.4 ± 0.9
288.15 K, 17992 kPa	823.4 ± 0.9
288.15 K, 19982 kPa	824.6 ± 0.9
288.15 K, 21991 kPa	825.9 ± 0.9
288.15 K, 25200 kPa	827.9 ± 0.9
288.15 K, 28149 kPa	829.7 ± 0.9
288.15 K, 30056 kPa	830.8 ± 0.9
288.15 K, 32010 kPa	832 ± 0.9
288.15 K, 32915 kPa	832.4 ± 0.9
288.15 K, 32978 kPa	832.5 ± 0.9
288.15 K, 33919 kPa	833 ± 0.9
288.15 K, 37967 kPa	835.3 ± 0.9
288.15 K, 40071 kPa	836.5 ± 0.9
288.15 K, 42013 kPa	837.6 ± 0.9
288.15 K, 45099 kPa	839.3 ± 0.9
288.15 K, 47977 kPa	840.8 ± 0.9
288.15 K, 51983 kPa	842.9 ± 0.9
288.15 K, 57976 kPa	846 ± 1
288.15 K, 62043 kPa	848 ± 1
288.15 K, 64998 kPa	849.5 ± 1
288.15 K, 66143 kPa	850 ± 1
288.16 K, 6990 kPa	815.8 ± 0.8
288.16 K, 9100 kPa	817.3 ± 0.8
288.16 K, 35048 kPa	833.7 ± 0.9
288.16 K, 50052 kPa	842 ± 0.9
288.16 K, 54961 kPa	844.5 ± 1
288.16 K, 59961 kPa	847 ± 1
293.15 K, 99 kPa	806.7 ± 0.8
293.15 K, 891 kPa	807.3 ± 0.8
293.15 K, 10027 kPa	814.1 ± 0.8
293.15 K, 12006 kPa	815.5 ± 0.9
293.15 K, 14925 kPa	817.5 ± 0.9
293.15 K, 22039 kPa	822.3 ± 0.9
293.15 K, 24969 kPa	824.2 ± 0.9
293.15 K, 28001 kPa	826 ± 0.9
293.15 K, 30012 kPa	827.2 ± 0.9
293.15 K, 31992 kPa	828.4 ± 0.9
293.15 K, 33079 kPa	829.1 ± 0.9
293.15 K, 34051 kPa	829.6 ± 0.9
293.15 K, 37933 kPa	831.9 ± 0.9
293.15 K, 40088 kPa	833.1 ± 0.9
293.15 K, 42062 kPa	834.2 ± 0.9
293.15 K, 45052 kPa	835.9 ± 0.9
293.15 K, 48098 kPa	837.6 ± 0.9
293.15 K, 50000 kPa	838.6 ± 0.9
293.15 K, 51999 kPa	839.7 ± 0.9
293.15 K, 55060 kPa	841.3 ± 1
293.15 K, 58191 kPa	842.9 ± 1
293.15 K, 62049 kPa	844.8 ± 1
293.15 K, 64958 kPa	846.3 ± 1
293.15 K, 66185 kPa	846.9 ± 1
293.16 K, 304 kPa	806.8 ± 0.8
293.16 K, 505 kPa	807 ± 0.8
293.16 K, 1026 kPa	807.4 ± 0.8
293.16 K, 1994 kPa	808.2 ± 0.8
293.16 K, 3011 kPa	808.9 ± 0.8
293.16 K, 4984 kPa	810.4 ± 0.8
293.16 K, 7001 kPa	811.9 ± 0.8
293.16 K, 8967 kPa	813.4 ± 0.8
293.16 K, 17912 kPa	819.5 ± 0.9
293.16 K, 20060 kPa	821 ± 0.9
293.16 K, 33109 kPa	829 ± 0.9
293.16 K, 35005 kPa	830.2 ± 0.9
293.16 K, 60071 kPa	843.8 ± 1
298.15 K, 96 kPa	802.3 ± 0.8
298.15 K, 291 kPa	802.5 ± 0.8
298.15 K, 488 kPa	802.7 ± 0.8
298.15 K, 995 kPa	803.1 ± 0.8
298.15 K, 2020 kPa	803.9 ± 0.8
298.15 K, 9025 kPa	809.3 ± 0.8
298.15 K, 10078 kPa	810 ± 0.9
298.15 K, 17949 kPa	815.6 ± 0.9
298.15 K, 19932 kPa	817 ± 0.9
298.15 K, 22061 kPa	818.4 ± 0.9
298.15 K, 24991 kPa	820.3 ± 0.9
298.15 K, 27926 kPa	822.2 ± 0.9
298.15 K, 30121 kPa	823.6 ± 0.9
298.15 K, 32061 kPa	824.8 ± 0.9
298.15 K, 33040 kPa	825.4 ± 0.9
298.15 K, 33088 kPa	825.4 ± 0.9
298.15 K, 35034 kPa	826.5 ± 0.9
298.15 K, 38020 kPa	828.3 ± 0.9
298.15 K, 49981 kPa	835.1 ± 0.9
298.15 K, 57978 kPa	839.4 ± 1
298.15 K, 60039 kPa	840.5 ± 1
298.15 K, 62048 kPa	841.5 ± 1
298.15 K, 66054 kPa	843.6 ± 1
298.16 K, 906 kPa	803 ± 0.8
298.16 K, 3037 kPa	804.7 ± 0.8
298.16 K, 5064 kPa	806.3 ± 0.8
298.16 K, 7065 kPa	807.8 ± 0.8
298.16 K, 12017 kPa	811.4 ± 0.9
298.16 K, 15244 kPa	813.7 ± 0.9
298.16 K, 34019 kPa	825.9 ± 0.9
298.16 K, 40026 kPa	829.5 ± 0.9
298.16 K, 42019 kPa	830.7 ± 0.9
298.16 K, 44993 kPa	832.3 ± 0.9
298.16 K, 47933 kPa	834 ± 0.9
298.16 K, 52047 kPa	836.3 ± 1
298.16 K, 54969 kPa	837.8 ± 1
298.16 K, 65037 kPa	843.1 ± 1
303.15 K, 98 kPa	798.2 ± 0.8
303.15 K, 290 kPa	798.3 ± 0.8
303.15 K, 914 kPa	798.8 ± 0.8
303.15 K, 1019 kPa	798.9 ± 0.8
303.15 K, 2009 kPa	799.7 ± 0.8
303.15 K, 3007 kPa	800.5 ± 0.8
303.15 K, 4968 kPa	802.1 ± 0.8
303.15 K, 8967 kPa	805.2 ± 0.8
303.15 K, 17980 kPa	811.8 ± 0.9
